Source: US20200239530A1, “COMPOUNDS AND METHODS OF MODULATING PROTEIN DEGRADATION” (Vividion Therapeutics, Inc., priority 2017, published 2020)
Read-outs that look alike come from different tables or passages of the source.

What was measured:
Assay in all cases: Cysteine liganding, probe competition
Assay type in all cases: binding
UniProt O14544 = target: T1, UniProt O14544 (Homo sapiens, UniProt O14544); settings: for inhibition at 100 µM: read-out: percent_inhibition
T1 construct: 200 μL of lysate containing 5 mg/ml proteome was treated with 2 μL of 100× compound stock; endogenous in cells
T1 sequence (O14544 1-535): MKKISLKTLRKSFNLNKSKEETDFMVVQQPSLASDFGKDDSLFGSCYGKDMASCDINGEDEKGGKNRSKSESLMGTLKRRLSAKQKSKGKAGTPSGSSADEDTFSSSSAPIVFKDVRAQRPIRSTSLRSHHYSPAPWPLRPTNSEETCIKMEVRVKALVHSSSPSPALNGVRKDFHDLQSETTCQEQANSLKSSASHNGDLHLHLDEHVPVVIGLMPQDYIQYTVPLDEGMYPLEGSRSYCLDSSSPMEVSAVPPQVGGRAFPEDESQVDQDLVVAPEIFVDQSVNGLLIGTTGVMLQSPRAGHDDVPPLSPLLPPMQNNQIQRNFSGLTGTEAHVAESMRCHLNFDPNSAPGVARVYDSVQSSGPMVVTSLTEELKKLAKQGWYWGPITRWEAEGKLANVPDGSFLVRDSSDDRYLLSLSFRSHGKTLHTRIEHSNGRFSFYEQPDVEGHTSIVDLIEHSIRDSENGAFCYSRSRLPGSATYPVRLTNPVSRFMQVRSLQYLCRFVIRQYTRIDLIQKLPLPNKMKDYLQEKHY
Excerpt: (§1) The following 96-well sample prep protocol was used for sample preparation.

UniProt O60260 = target: T2, UniProt O60260 (Homo sapiens, UniProt O60260)
T2 construct: 200 μL of lysate containing 5 mg/ml proteome was treated with 2 μL of 100× compound stock; endogenous in cells
T2 sequence (O60260 1-465): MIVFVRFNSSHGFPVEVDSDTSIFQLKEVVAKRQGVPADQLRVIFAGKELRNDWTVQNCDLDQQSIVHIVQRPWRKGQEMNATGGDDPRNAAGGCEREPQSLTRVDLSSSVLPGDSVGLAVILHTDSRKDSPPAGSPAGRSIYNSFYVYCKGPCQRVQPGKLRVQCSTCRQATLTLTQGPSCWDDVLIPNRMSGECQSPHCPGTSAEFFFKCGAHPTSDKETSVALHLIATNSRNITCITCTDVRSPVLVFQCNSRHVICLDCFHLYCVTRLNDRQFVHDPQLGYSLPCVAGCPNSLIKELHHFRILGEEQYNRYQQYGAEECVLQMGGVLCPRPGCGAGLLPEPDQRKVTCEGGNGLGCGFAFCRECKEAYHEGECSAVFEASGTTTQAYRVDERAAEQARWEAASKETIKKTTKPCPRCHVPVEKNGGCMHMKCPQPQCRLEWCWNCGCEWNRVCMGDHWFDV
Excerpt: as §1

UniProt Q3KNV8 = target: T3, UniProt Q3KNV8 (Homo sapiens, UniProt Q3KNV8)
T3 construct: Cells were resuspended in cold PBS on ice and sonicated with a probe sonicator to achieve lysis; endogenous in cells
T3 sequence (Q3KNV8 1-242): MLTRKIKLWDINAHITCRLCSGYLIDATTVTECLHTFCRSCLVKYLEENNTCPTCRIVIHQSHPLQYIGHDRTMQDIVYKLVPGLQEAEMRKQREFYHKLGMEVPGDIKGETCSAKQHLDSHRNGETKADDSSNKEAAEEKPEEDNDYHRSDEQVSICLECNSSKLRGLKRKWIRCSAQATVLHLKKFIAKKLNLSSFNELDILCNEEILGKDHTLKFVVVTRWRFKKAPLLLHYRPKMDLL
Excerpt: as §1

UniProt Q8WV44 = target: T4, UniProt Q8WV44 (Homo sapiens, UniProt Q8WV44)
T4 construct: 200 μL of lysate containing 5 mg/ml proteome was treated with 2 μL of 100× compound stock; endogenous in cells
T4 sequence (Q8WV44 1-630): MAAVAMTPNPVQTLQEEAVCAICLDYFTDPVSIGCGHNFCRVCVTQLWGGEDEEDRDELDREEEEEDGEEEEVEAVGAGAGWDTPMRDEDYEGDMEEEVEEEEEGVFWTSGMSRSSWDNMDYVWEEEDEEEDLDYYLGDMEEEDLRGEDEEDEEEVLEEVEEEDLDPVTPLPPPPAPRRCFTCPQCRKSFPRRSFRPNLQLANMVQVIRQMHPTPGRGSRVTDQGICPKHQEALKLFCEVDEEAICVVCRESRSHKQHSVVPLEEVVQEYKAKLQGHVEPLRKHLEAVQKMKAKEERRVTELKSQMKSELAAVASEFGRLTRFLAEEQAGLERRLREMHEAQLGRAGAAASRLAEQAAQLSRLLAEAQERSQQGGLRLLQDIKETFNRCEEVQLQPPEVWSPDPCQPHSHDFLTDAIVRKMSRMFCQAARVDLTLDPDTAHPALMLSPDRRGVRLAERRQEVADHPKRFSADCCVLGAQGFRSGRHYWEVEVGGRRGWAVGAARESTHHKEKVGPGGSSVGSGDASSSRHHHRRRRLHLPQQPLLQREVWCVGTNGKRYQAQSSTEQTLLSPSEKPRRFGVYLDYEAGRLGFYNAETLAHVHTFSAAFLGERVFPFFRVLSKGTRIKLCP
Excerpt: as §1

UniProt Q9BUL5 = target: T5, UniProt Q9BUL5 (Homo sapiens, UniProt Q9BUL5)
T5 construct: 200 μL of lysate containing 5 mg/ml proteome was treated with 2 μL of 100× compound stock; endogenous in cells
T5 sequence (Q9BUL5 whole entry, change not shown): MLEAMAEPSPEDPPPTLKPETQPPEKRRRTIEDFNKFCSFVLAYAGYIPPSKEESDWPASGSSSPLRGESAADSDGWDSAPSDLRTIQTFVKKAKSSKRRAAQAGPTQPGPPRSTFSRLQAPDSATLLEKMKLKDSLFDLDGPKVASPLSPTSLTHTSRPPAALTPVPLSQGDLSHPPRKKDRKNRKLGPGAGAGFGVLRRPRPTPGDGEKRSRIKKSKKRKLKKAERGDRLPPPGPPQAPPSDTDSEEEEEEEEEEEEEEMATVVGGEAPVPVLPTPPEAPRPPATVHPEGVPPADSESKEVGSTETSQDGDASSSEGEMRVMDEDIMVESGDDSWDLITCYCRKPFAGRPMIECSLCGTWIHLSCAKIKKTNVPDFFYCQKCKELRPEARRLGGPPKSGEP
Excerpt: as §1

UniProt Q9BZY9 = target: T6, UniProt Q9BZY9 (Homo sapiens, UniProt Q9BZY9)
T6 construct: 200 μL of lysate containing 5 mg/ml proteome was treated with 2 μL of 100× compound stock; endogenous in cells
T6 sequence (Q9BZY9 1-425): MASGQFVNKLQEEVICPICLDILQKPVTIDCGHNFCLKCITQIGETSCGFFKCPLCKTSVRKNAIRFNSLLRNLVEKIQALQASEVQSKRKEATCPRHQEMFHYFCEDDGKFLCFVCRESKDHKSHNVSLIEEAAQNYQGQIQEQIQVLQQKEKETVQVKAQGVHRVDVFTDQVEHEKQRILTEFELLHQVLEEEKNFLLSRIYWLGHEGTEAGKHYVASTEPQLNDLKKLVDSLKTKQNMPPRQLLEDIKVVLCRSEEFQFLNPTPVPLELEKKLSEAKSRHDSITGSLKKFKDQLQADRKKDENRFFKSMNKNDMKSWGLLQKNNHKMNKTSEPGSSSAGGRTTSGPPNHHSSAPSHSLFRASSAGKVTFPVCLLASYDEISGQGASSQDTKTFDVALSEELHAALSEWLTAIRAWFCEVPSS
Excerpt: as §1

[1] = read-out: KB02_500 uM_percent_inhibition
[2] = 100 uM, read-out: KB02_100 uM_percent_inhibition
[3] = read-out: KB05_500 uM_percent_inhibition
[4] = 100 uM, read-out: KB05_100 uM_percent_inhibition
[5] = 500 uM, read-out: KB05_500 uM_percent_inhibition

COc1ccc2c(c1)CCCN2C(=O)CCl [KB02]
inhibition at 100 µM (UniProt O14544): 35% | inhibition at 500 µM (UniProt O60260; [1]): 92% | inhibition at 100 µM (UniProt Q3KNV8; [2]): 19% | KB02_500 uM_percent_inhibition (UniProt Q3KNV8; 500 uM): 57% | inhibition at 500 µM (UniProt Q3KNV8; 500 uM, read-out: KB02_500 uM_percent_inhibition): 52% | inhibition at 100 µM (UniProt Q8WV44; [2]): 15% | inhibition at 100 µM (UniProt Q9BUL5; [2]): 13% | inhibition at 500 µM (UniProt Q9BZY9; [1]): 68%

C=CC(=O)N(c1ccccc1)c1ccc(Br)cc1 [KB05]
inhibition at 100 µM (UniProt O14544): 59% | inhibition at 500 µM (UniProt O60260; [3]): 93% | inhibition at 100 µM (UniProt Q3KNV8; [4]): 14% | KB05_500 uM_percent_inhibition (UniProt Q3KNV8; 500 uM): 50% | inhibition at 500 µM (UniProt Q3KNV8; [5]): 58% | inhibition at 500 µM (UniProt Q8WV44; [5]): 50% | inhibition at 100 µM (UniProt Q9BUL5; [4]): 29% | KB05_500 uM_percent_inhibition (UniProt Q9BUL5; 500 uM): 30% | inhibition at 500 µM (UniProt Q9BUL5; [5]): 27% | inhibition at 500 µM (UniProt Q9BZY9; [3]): 71%

O=C(CCl)Nc1cc(C(F)(F)F)cc(C(F)(F)F)c1 [KBO3]
percent_inhibition (UniProt O14544; 100 uM): 83% | KB03_500 uM_percent_inhibition (UniProt O60260; 500 uM): 91% | KB03_100 uM_percent_inhibition (UniProt Q3KNV8; 100 uM): 6% | KB03_100 uM_percent_inhibition (UniProt Q8WV44; 100 uM): 31% | KB03_100 uM_percent_inhibition (UniProt Q9BUL5; 100 uM): 16% | KB03_500 uM_percent_inhibition (UniProt Q9BZY9; 500 uM): 48%
